Measured values published in ChEMBL document CHEMBL3638933, “Pyrrolopyridazine JAK3 inhibitors and their use for the treatment of inflammatory and autoimmune diseases” (2014).
pIC50: −log10 of the molar value.

Assays:
[1] = biological target: Tyrosine-protein kinase JAK1 (Homo sapiens, UniProt P23458); test: Kinase Assay: The assay reactions were performed in U-bottom 384-well plates. The final assay volume was 30 ul prepared from 15 ul additions of enzyme and substrates (fluoresceinated peptide and ATP) and test compounds in assay buffer (20 mM HEPES pH 7.4, 10 mM MgCl2, 25 mM beta-glycerol phosphate, 0.015% Brij35 and 4 mM DTT). The reaction was initiated by the combination of GST-JAK1 enzyme with substrates and test compounds. The reactions were incubated at room temperature for 3 hours and terminated by adding 60 ul of 35 mM EDTA to each sample. Each reaction mixture was analyzed on the Caliper LabChip 3000 (Caliper, Hopkinton, MA) by electrophoretic separation of the fluorescent substrate and phosphorylated product. […] The final concentration of reagents in the assays was: ATP, 100 uM; fluoresceinated peptide.
Tyrosine-protein kinase JAK1, sequence (P23458 whole entry): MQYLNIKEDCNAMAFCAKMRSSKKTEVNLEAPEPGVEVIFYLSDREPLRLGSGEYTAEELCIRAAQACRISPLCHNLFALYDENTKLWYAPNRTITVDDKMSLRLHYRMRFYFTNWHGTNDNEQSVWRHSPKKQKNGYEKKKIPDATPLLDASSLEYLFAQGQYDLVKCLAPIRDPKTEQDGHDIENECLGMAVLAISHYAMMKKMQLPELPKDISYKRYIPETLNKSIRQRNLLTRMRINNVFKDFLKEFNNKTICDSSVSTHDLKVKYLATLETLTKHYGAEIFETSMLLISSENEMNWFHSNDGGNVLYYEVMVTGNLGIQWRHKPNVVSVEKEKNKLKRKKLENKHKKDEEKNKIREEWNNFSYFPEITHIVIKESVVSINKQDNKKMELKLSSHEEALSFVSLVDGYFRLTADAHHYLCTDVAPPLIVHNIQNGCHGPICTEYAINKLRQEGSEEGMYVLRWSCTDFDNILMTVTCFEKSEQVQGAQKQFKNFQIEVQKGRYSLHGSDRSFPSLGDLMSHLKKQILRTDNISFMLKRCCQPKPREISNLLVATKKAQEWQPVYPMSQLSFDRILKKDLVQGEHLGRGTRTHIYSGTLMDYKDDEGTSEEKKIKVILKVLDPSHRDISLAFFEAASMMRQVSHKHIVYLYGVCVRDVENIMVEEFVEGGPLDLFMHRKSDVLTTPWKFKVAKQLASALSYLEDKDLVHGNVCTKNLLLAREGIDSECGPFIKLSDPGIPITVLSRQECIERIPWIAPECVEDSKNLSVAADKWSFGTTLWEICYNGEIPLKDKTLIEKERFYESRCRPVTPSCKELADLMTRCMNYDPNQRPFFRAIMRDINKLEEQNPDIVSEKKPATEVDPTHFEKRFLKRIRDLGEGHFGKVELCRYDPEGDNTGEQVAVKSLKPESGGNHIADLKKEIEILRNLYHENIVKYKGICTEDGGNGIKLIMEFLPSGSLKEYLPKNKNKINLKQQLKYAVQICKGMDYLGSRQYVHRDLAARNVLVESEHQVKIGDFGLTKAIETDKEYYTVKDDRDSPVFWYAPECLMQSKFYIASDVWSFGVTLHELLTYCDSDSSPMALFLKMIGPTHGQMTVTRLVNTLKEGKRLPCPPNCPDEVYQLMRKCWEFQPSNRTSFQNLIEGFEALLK

[2] = biological target: T1, Tyrosine-protein kinase JAK3 (Homo sapiens, UniProt P52333); test: Reactions were incubated for 30 minutes at room temperature and stopped by the addition of cold trichloroacetic acid (TCA) to a final concentration of 15%. TCA precipitates were collected onto 384 well phosphocellulose filters (Millipore) using a Platemate to transfer the reaction mixture, washed on an EMBLA plate washer and the filters were quantitated using a TopCount 384-well liquid scintillation counter. […] Compounds were dissolved at 10 mM in dimethylsulfoxide (DMSO) and evaluated at six concentrations, each in triplicate. The final concentration of DMSO in the assay equaled 2%.
T1 sequence (P52333 whole entry): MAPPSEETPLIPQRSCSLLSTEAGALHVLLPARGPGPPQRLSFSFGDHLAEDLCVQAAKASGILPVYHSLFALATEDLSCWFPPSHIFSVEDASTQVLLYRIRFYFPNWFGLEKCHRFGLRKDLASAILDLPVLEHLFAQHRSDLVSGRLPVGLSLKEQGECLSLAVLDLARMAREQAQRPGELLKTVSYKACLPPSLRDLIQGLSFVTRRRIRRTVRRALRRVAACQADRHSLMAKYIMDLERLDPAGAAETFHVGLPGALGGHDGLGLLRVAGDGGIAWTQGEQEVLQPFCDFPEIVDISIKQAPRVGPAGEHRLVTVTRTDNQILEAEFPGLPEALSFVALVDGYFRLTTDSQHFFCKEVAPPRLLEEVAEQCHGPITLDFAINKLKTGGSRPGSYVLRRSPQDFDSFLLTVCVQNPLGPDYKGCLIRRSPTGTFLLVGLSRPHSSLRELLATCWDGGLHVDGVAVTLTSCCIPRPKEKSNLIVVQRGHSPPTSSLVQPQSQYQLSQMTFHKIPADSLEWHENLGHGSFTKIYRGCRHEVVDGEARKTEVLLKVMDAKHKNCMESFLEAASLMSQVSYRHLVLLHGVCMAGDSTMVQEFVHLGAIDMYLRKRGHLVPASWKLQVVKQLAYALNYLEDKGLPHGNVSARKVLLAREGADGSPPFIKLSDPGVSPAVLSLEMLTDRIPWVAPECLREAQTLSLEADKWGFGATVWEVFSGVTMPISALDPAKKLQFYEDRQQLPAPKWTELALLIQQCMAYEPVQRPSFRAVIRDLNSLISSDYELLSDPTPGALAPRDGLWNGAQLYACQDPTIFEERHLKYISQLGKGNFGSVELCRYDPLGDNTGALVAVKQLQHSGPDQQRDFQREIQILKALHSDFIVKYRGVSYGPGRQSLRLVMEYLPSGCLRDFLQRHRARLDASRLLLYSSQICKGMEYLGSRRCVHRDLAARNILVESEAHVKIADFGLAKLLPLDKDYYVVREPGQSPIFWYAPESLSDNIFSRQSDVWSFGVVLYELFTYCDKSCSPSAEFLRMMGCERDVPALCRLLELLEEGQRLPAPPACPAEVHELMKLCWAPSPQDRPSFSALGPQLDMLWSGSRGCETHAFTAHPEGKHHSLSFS

Structure (SMILES): CC1(C)[C@H](Nc2c(C(N)=O)cnn3cc(-c4ccc(C#N)nc4)cc23)CC[C@]1(C)C(N)=O
- pIC50 [1]: 8.24
- pIC50 [2]: 9.00
